Assay results: patent publication US20230218654A1, “COMPOSITIONS AND METHODS FOR TREATING HYPERGLYCEMIA IN TYPE-2 DIABETES” (The Board of Regents of the university of Oklahoma, priority 2020, published 2023)
Entries after “also recorded” stand apart in the source; their conditions may differ.

Key:
male C57BL/6J mice = assay: Pyruvate tolerance test (PTT); format: in vivo; conditions: 60 mg/kg SQ twice; for blood glucose excursion / hepatic glucose production in PTT: 6 h fast, 60 mg/kg
Protocol: On the day of testing, mice were fasted for 6 h (from 9am to 3 pm). Mice were then given 2 g/kg sodium pyruvate via IP injection. Blood glucose was measured with an UltraTouch glucometer in time course over a 120-minute period.
Mice were treated with 2 doses of MLN4924 as described. After the second injection at 9 am, mice were fasted for 6 h from 9 am to 3 pm. Mice were injected intraperitoneally […] for PTT, and 0.5 U/kg insulin for ITT. Blood glucose was measured with a OneTouch Ultra glucose meter.

AML12 mouse hepatocytes = assay: Western blot of insulin signaling and cullin neddylation in AML12 cells; format: cell-based
Protocol: MLN4924 increases IRS protein and AKT activation in the presence of insulin. Mouse AML 12 hepatocytes were serum starved for 16 h. Cells were then pre-treated with MLN4924 for 1 h followed by 100 nM insulin stimulation for 4 h. Western blot was then performed to evaluate insulin signaling activation.
AML 12 cells were serum starved for 16 h. Cells were then pre-treated with 500 nM MLN4924 or vehicle (DMSO) for 1 h, followed by 100 µg/ml cycloheximide (CHX) and 100 nM insulin treatment.
AML12 cells were serum starved for 16 h. Cells were then pre-treated with 500 nM MLN4924 for 1 h followed by 100 nM insulin stimulation in time course.
FIG. 18A is a Western blot analysis showing that MLN4924 enhances hepatocyte insulin responsiveness (signaling) by delaying feedback IRS degradation. AML12 cells were serum starved for 16 h. Cells were then pre-treated with MLN4924 for 1 h followed by insulin stimulation for 4 h.
FIG. 18D is a Western blot analysis of insulin signaling in AML12 cells serum starved for 16 h, then pre-treated with 500 nM MLN4924 for 1 h followed by 100 nM insulin stimulation in time course.
FIG. 18E is a Western blot analysis of AML12 cells serum starved for 16 h then pre-treated with 500 nM MLN4924 or vehicle (DMSO) for 1 h, followed by 100 µg/ml cycloheximide (CHX) and 100 nM insulin treatment. Cells were collected at the indicated time for Western blotting.
FIG. 18F is a Western blot analysis of insulin signaling in AML12 cells serum starved for 16 h then pre-treated with 100 nM rapamycin and 500 nM MLN4924 as indicated for 1 h followed by additional 2 h incubation in the presence or absence of 100 nM insulin. Blots are representative of 2-4 independent experiments.
(§1) FIG. 20 is a Western blot analysis showing that MLN4924 enhances hepatocyte insulin responsiveness in cells treated with wortmannin by delaying feedback IRS degradation (related to FIG. 18A). AML12 cells were serum starved for 16 h then pre-treated with 1 µM wortmannin (Wort) and 500 nM MLN4924 as indicated for 1 h followed by additional 2 h incubation in the presence or absence of 100 nM insulin. Blots are representative of 2 independent experiments.
as §1, with “21” for “20”, “Torin 1” for “wortmannin”, “250 nM Torin1” for “1 µM wortmannin (Wort)”
MLN4924 and TAS4464 were purchased from MedChemExpress (MCE, Monmouth Junction, NJ). For cell treatment, MLN4924 and TAS4464 were dissolved in DMSO. Cells were serum starved overnight and then treated with MLN4924, TAS4464 and/or insulin as indicated. For injection in mice, MLN4924 and TAS4464 were first dissolved in DMSO, which was further suspended in 10% (2-hydroxypropyl)-β-cyclodextrin (Sigma, St. Louis, MO). The final solution contains 1% DMSO. The subcutaneous injection volume is 200 µl/mouse.
Protein lysates were prepared in RIPA buffer containing 1% SDS and protease inhibitors on ice for 1 h followed by brief sonication. After centrifugation, supernatant was used for SDS-PAGE and immunoblotting.
AML12 cells were a generous gift from Dr. Yanqiao Zhang (Northeast Ohio Medical University). AML12 cells were cultured in DMEM medium supplemented with a mixture of insulin-transferrin-selenium (#41400-045, ThermoFisher, Waltham, MA). For experiments, cells were cultured in serum free medium overnight before various treatments were initiated. The siGENOME SMARTpool siRNA and siControl were purchased from Dharmacon, Inc. (Lafayette, CO). The siRNA was transfected with Lipofectamine RNAiMAX reagent in a final concentration of 25 nM recommended by the manufacturer. […]

[1] = insulin stimulated, MLN4924 pre-treatment 1 h, insulin 4 h

**Q.** For `NS(=O)(=O)OC[C@@H]1C[C@@H](n2ccc3c(N[C@H]4CCc5ccccc54)ncnc32)C[C@@H]1O` [MLN4924, ((1S,2S,4R)-4-(4-((1S)-2,3-dihydro-1H-inden-1-ylamino)-7H-pyrrolo[2,3-d]pyrimidin-7-yl)-2-hydroxycyclopentyl) methyl sulfamate], which “peak blood glucose at 30 minutes post pyruvate challenge” value (male C57BL/6J mice; vs vehicle) is on record?
**A.** significantly lower

**Q.** And the “blood glucose excursion / hepatic glucose production in PTT” value (male C57BL/6J mice; 4-week WD-fed mice)?
**A.** significantly lower

**Q.** What about the “blood glucose excursion / hepatic glucose production in PTT” value (male C57BL/6J mice; 4-week chow-fed mice) of the same compound?
**A.** significantly lower; also recorded: significantly reduced hepatic glucose production

**Q.** What about the “IRS protein in the presence of rapamycin” value (AML12 mouse hepatocytes; 500 nM MLN4924 + 100 nM rapamycin, 100 nM insulin) of the same compound?
**A.** did not further increase IRS protein

**Q.** What about the “IRS1 S307 phosphorylation” value (AML12 mouse hepatocytes; 500 nM, 100 nM insulin time course) of the same compound?
**A.** also higher

**Q.** And the “insulin signaling desensitization (IRS1(Y612), AKT(S473))” value (AML12 mouse hepatocytes; 500 nM, 1 h, then 100 nM insulin in time course)?
**A.** significantly delayed cellular insulin desensitization; also recorded: significantly delayed insulin signaling desensitization

**Q.** And the “insulin-induced IRS degradation” value (AML12 mouse hepatocytes; 500 nM, 100 µg/ml cycloheximide (CHX) and 100 nM insulin)?
**A.** significantly delayed

**Q.** And the “further MLN4924-mediated IRS enrichment and insulin sensitization” value (AML12 mouse hepatocytes; Cul1 or Cul3 knockdown cells, 500 nM)?
**A.** limited but not fully abolished

**Q.** And the “AKT S473 phosphorylation” value (AML12 mouse hepatocytes; [1])?
**A.** increased AKT S473 phosphorylation

**Q.** And the “IR (Y1150) phosphorylation” value (AML12 mouse hepatocytes; [1])?
**A.** but not IR (Y1150) phosphorylation

**Q.** And the “IRS1(Y612) phosphorylation” value (AML12 mouse hepatocytes; [1])?
**A.** enhanced IRS1(Y612) phosphorylation

**Q.** And the “total IRS1 and IRS2 protein” value (AML12 mouse hepatocytes; [1])?
**A.** dose-dependently increased total IRS1 and IRS2 protein

**Q.** And the “further IRS protein stabilization caused by MLN4924” value (AML12 mouse hepatocytes; simultaneous knockdown of Cul1 and Cul3, 500 nM)?
**A.** largely abolished
